{"source": "patent US9474744B2", "about": "“Beta-lactam compounds for treating diabetes” (STEM CELL MEDICINE LTD., priority 2011, dated 2016)", "key": {"CD4+ human T cells": {"tested_on": "CD4+ human T cells", "assay": "Human Autoimmune and Inflammatory Response Gene Array, anti-CD3-stimulated T cells with or without antibiotic", "format": "cell-based", "settings": "120 min anti-CD3; for % increase by Amp: ampicillin 50 μg/ml", "method": "T cells were purified from the peripheral bloods of healthy human donors (Blood Bank, Sheba Medical center). The whole blood was incubated (20 min, 22° C.) with RosetteSep™ human T cell enrichment mixture (StemCell Technologies, Vancouver, Canada). The remaining unsedimented cells were then loaded onto lymphocyte separation medium (ICN Biomedicals, Irvine, Calif.), isolated by density centrifugation, and washed with PBS. […] In a second round of purification, CD3^+ T cells were labeled for selection with a magnetically coupled mAb against CD4 (Miltenyi Biotec, Auburn, Calif.).\nHuman CD4 T cells were isolated as described, and incubated in 24 well plates (Nunc), 4×10^6 cells/ml with plate bound anti-human CD3 (OKT3) at 2 μg/ml. The stimulation was performed in RPMI medium supplemented with 0.1% BSA. […] RNA was extracted from samples and used to prepare probes for gene array in accord with the manufacturer's instructions (SuperArray Bioscience, Frederick, Md.). Adequate labeling of the probes was tested before hybridization. Three healthy donors were tested in stimulation with cefuroxime. The membranes were analyzed online with the Image Data Acquisition and Expression Analysis (SuperArray Bioscience).\nThe Human Autoimmune and Inflammatory Response Gene Array (SuperArray Bioscience corporation, Frederick, Md., USA) was used for analysis of gene expression by the T cells. This array contains 367 genes including cytokines, chemokines and their receptors, transcription factors and signaling proteins. […] Analysis of the results was performed using the GEArray analysis program. […] To verify the results detected by the gene array study, a panel of six genes was designed and tested by real-time PCR: CCR4, ACVR2, JAK1, STAT4, TLR2 and NFKBIE. The cDNA that was used was prepared from the same RNA used for the gene array experiment."}, "[1]": {"tested_on": "encephalitogenic BP10 line", "assay": "Adoptive EAE: BP10 T-cell line stimulated in vitro with test substance, then injected into naive rats", "format": "in vivo, rat", "settings": "BP10 line stimulated 3 days with MBP in presence of 50 μg/ml antibiotic; 10^7 cells per rat", "method": "Antigen-specific T-cell lines were established from lymph node cells that had been stimulated with myelin basic protein (MBP; 10 μg/ml) for 3 days in stimulation medium as described below. Following stimulation, the T-cell blasts were isolated on LYMPHOPREP™ (Nycomed Pharma, Oslo, Norway) and seeded in propagation medium. Propagation medium was identical to stimulation medium without autologous serum, but supplemented with fetal calf serum 10% and T-cell growth factors from the supernatant of Con A stimulated spleen cells 10% (Mor et al. (1990) J Clin Invest, 85, 1594-1598). Animals were injected intra-peritoneally with 107 MBP-stimulated T cells, following 6-8 cycles of in vitro stimulations. It is known that MBP-reactive lines undergo a reduction in pathogenicity after 6 or more in vitro stimulations. In some experiments the BP10 line was stimulated with phorbol myristate acetate (PMA; 50 ng/ml) and ionomycin (500 ng/ml) for 3 days in stimulation medium, without antigen-presenting cells.\nActive EAE was induced by subcutaneous injection of 25 μg guinea-pig MBP (GpMBP) in complete Freund's adjuvant (CFA). […] Adoptive EAE was transferred by intra-peritoneal injection of guinea-pig MBP-activated cells of the BP10 line as described in Mor et al. (1993) J Clin Invest, 92, 2199-2206. […] Clinical scoring was: +1, paralysis of tail; +1.5, paresis of posterior paws and ataxia; +2, paraplegia; +3, paralysis extending to thoracic spine; +4, a moribund state.\nTreatment with cefuroxime in vivo could affect many different host agents involved in EAE or AA as well as influencing the rats' bacterial flora. To test whether the antibiotic might directly modify the behavior of effector T cells, an encephalitogenic T-cell line was stimulated in the presence or absence of cefuroxime in vitro. The weakly encephalitogenic BP10 line was used, and was stimulated for 3 days with MBP in the presence or absence of cefuroxime (50 μg/ml). The activated T cells were then washed to remove the antibiotic, the T cells were injected intra-peritoneally into naïve recipient rats (10^7 per rat), and EAE was scored. The BP10 line at later stimulations was used, when its pathogenic potential is reduced, allowing to detect both suppression and enhancement of disease. […] To rule out antigen presenting cells (APC) as the target of the beta-lactam antibiotic, the encephalitogenic BP10 line was stimulated without APC using PMA (50 ng/ml) and Ionomycin (500 ng/ml) in the presence or absence of cefuroxime.\nAdditional beta-lactam antibiotics were tested for their effect on the adoptive transfer of EAE.\nA control group was injected with the untreated line."}}}
{"smiles": "CC1(C)S[C@@H]2[C@H](NC(=O)[C@H](N)c3ccccc3)C(=O)N2[C@H]1C(=O)O", "note": "[ampicillin]", "values": [{"measurement": "number of the 57 cefuroxime-down-regulated genes that were up-regulated", "setting": "CD4+ human T cells; 50 μg/ml", "result": 56, "unit": "genes"}, {"measurement": "% increase by Amp", "setting": "CD4+ human T cells; gene ACTB", "result": "+196%"}, {"measurement": "% increase by Amp", "setting": "CD4+ human T cells; gene ACVR1, A low expression", "result": "+53%"}, {"measurement": "% increase by Amp", "setting": "CD4+ human T cells; gene ACVR2, A low expression", "result": "+85%"}, {"measurement": "% increase by Amp", "setting": "CD4+ human T cells; gene CCL5", "result": "+25%"}, {"measurement": "% increase by Amp", "setting": "CD4+ human T cells; gene CCL11", "result": "+107%"}, {"measurement": "% increase by Amp", "setting": "CD4+ human T cells; gene CCR4", "result": "+31%"}, {"measurement": "% increase by Amp", "setting": "CD4+ human T cells; gene CCR6", "result": "+83%"}, {"measurement": "% increase by Amp", "setting": "CD4+ human T cells; gene CCR7", "result": "+43%"}, {"measurement": "% increase by Amp", "setting": "CD4+ human T cells; gene CD28", "result": "+175%"}, {"measurement": "% increase by Amp", "setting": "CD4+ human T cells; gene CD40LG", "result": "+67%"}, {"measurement": "% increase by Amp", "setting": "CD4+ human T cells; gene CREBBP", "result": "+49%"}, {"measurement": "% increase by Amp", "setting": "CD4+ human T cells; gene CXCL10", "result": "+25%"}, {"measurement": "% increase by Amp", "setting": "CD4+ human T cells; gene EGR3", "result": "−25", "unit": "%"}, {"measurement": "% increase by Amp", "setting": "CD4+ human T cells; gene GFI1", "result": "+10%"}, {"measurement": "% increase by Amp", "setting": "CD4+ human T cells; gene HRAS, A low expression", "result": "−12", "unit": "%"}, {"measurement": "% increase by Amp", "setting": "CD4+ human T cells; gene IL1B, A low expression", "result": "+64%"}, {"measurement": "% increase by Amp", "setting": "CD4+ human T cells; gene IL2RB", "result": "+93%"}, {"measurement": "% increase by Amp", "setting": "CD4+ human T cells; gene IL2RG, A low expression", "result": "+78%"}, {"measurement": "% increase by Amp", "setting": "CD4+ human T cells; gene IL9R", "result": "No change"}, {"measurement": "% increase by Amp", "setting": "CD4+ human T cells; gene IL16, A low expression", "result": "+14%"}, {"measurement": "% increase by Amp", "setting": "CD4+ human T cells; gene IRAK1", "result": "+171%"}, {"measurement": "% increase by Amp", "setting": "CD4+ human T cells; gene JAK1", "result": "+161%"}, {"measurement": "% increase by Amp", "setting": "CD4+ human T cells; gene JUN", "result": "+65%"}, {"measurement": "% increase by Amp", "setting": "CD4+ human T cells; gene LTA", "result": "+48.5%"}, {"measurement": "% increase by Amp", "setting": "CD4+ human T cells; gene MAP2K4", "result": "+150%"}, {"measurement": "% increase by Amp", "setting": "CD4+ human T cells; gene MAP3K1, A low expression", "result": "+63%"}, {"measurement": "% increase by Amp", "setting": "CD4+ human T cells; gene MAP3K2", "result": "+93%"}, {"measurement": "% increase by Amp", "setting": "CD4+ human T cells; gene MAP3K7", "result": "+124%"}, {"measurement": "% increase by Amp", "setting": "CD4+ human T cells; gene MAPK9", "result": "+46%"}, {"measurement": "% increase by Amp", "setting": "CD4+ human T cells; gene NFKB1", "result": "+31%"}, {"measurement": "% increase by Amp", "setting": "CD4+ human T cells; gene NFKB2", "result": "+195%"}, {"measurement": "% increase by Amp", "setting": "CD4+ human T cells; gene NFKBIE", "result": "+132%"}, {"measurement": "% increase by Amp", "setting": "CD4+ human T cells; gene NFKBIL1", "result": "+191%"}, {"measurement": "% increase by Amp", "setting": "CD4+ human T cells; gene PAK1", "result": "+111%"}, {"measurement": "% increase by Amp", "setting": "CD4+ human T cells; gene PIN1", "result": "+105%"}, {"measurement": "% increase by Amp", "setting": "CD4+ human T cells; gene RANBP5", "result": "+108%"}, {"measurement": "% increase by Amp", "setting": "CD4+ human T cells; gene REL", "result": "+132%"}, {"measurement": "% increase by Amp", "setting": "CD4+ human T cells; gene RFX5", "result": "+137%"}, {"measurement": "% increase by Amp", "setting": "CD4+ human T cells; gene RFXAP", "result": "+131%"}, {"measurement": "% increase by Amp", "setting": "CD4+ human T cells; gene SDF2", "result": "+71%"}, {"measurement": "% increase by Amp", "setting": "CD4+ human T cells; gene SELL", "result": "+124%"}, {"measurement": "% increase by Amp", "setting": "CD4+ human T cells; gene SMAD4", "result": "+85%"}, {"measurement": "% increase by Amp", "setting": "CD4+ human T cells; gene SMAD7, A low expression", "result": "+34%"}, {"measurement": "% increase by Amp", "setting": "CD4+ human T cells; gene SP3", "result": "+47%"}, {"measurement": "% increase by Amp", "setting": "CD4+ human T cells; gene SRF", "result": "+58%"}, {"measurement": "% increase by Amp", "setting": "CD4+ human T cells; gene STAT1", "result": "+85%"}, {"measurement": "% increase by Amp", "setting": "CD4+ human T cells; gene STAT4", "result": "+11%"}, {"measurement": "% increase by Amp", "setting": "CD4+ human T cells; gene STAT6", "result": "no change"}, {"measurement": "% increase by Amp", "setting": "CD4+ human T cells; gene TGFBR3", "result": "+139%"}, {"measurement": "% increase by Amp", "setting": "CD4+ human T cells; gene TGIF, A low expression", "result": "+72%"}, {"measurement": "% increase by Amp", "setting": "CD4+ human T cells; gene TLR2, A low expression", "result": "+419%"}, {"measurement": "% increase by Amp", "setting": "CD4+ human T cells; gene TNFRSF11, A low expression", "result": "+81%"}, {"measurement": "% increase by Amp", "setting": "CD4+ human T cells; gene TNFα", "result": "+39%"}, {"measurement": "% increase by Amp", "setting": "CD4+ human T cells; gene TRAF5, A low expression", "result": "+47%"}, {"measurement": "% increase by Amp", "setting": "CD4+ human T cells; gene TRAF6, A low expression", "result": "+39%"}, {"measurement": "% increase by Amp", "setting": "CD4+ human T cells; gene YY1", "result": "+152%"}, {"measurement": "severity of adoptive EAE in recipient rats", "setting": "[1]", "result": "did not increase the severity of EAE"}]}
